For six compounds, EC50 results are on record in patent US20260166128A1, “HUMAN AMYLIN ANALOG, AND DERIVATIVE THEREOF AND USE THEREOF” (priority 2022, published 2026).

Structures are written as SMILES. Numbered stars: 1 amine (or outer) side, 2 acyl side, 3 side chain; on linkers, the order of the positions; unused ones are H or OH. Bridge positions count the residues as written; N and C are the ends. Square brackets hold non-standard residues; d marks the D form. Side chains are listed from the residue outwards. Peptide text beside a SMILES is read from it. * marks the point of attachment. C20 diacid = O=C(O)CCCCCCCCCCCCCCCCCCC(=O)*; C18 diacid = O=C(O)CCCCCCCCCCCCCCCCC(=O)*; γGlu = O=C(O)[C@H](CCC(=O)[*:2])N[*:1]; Hyp = O=C(O)[C@@H]1C[C@@H](O)CN1; AEEA = NCCOCCOCC(=O)O; Inp = O=C(O)C1CCNCC1

The assay addresses T1, human amylin receptor (Homo sapiens, UniProt O60896+P30988).
T1 construct: host or cells: CHO-K1/Ga15/AMY3 cells, further stably transfected with a CRE-luciferase plasmid
T1 sequence (P30988 25-474): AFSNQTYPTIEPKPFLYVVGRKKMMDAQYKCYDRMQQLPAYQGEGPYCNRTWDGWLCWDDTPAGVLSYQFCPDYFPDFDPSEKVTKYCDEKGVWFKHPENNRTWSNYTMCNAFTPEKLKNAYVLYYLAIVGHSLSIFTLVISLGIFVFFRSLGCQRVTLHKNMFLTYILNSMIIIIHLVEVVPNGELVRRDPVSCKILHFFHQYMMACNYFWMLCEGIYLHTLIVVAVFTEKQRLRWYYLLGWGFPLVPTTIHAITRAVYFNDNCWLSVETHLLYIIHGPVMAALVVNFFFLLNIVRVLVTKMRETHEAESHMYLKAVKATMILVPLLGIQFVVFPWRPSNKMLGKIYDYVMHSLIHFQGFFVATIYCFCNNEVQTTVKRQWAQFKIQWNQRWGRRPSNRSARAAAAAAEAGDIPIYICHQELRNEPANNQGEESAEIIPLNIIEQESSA
T1 sequence (O60896 24-148 partner): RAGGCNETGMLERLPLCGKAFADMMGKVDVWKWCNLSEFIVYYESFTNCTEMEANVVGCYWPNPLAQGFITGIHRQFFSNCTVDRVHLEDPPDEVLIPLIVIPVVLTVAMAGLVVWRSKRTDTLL
The assay is described as follows: Luciferase assay of amylin derivatives in amylin receptor/CRE-luc CHO cell line. It counts as cell-based. Conditions: CHO-K1/Ga15/AMY3 CRE-luc cells, 24 hours incubation, F12 medium containing 10% FBS; read-out: EC50.

Protocol: The experiment was intended to detect the activity or efficacy of the amylin derivatives on a human amylin receptor in vitro by luciferase assay.
50 μL of growth medium (F12 medium containing 10% FBS) was added into each well of a white 96-well plate, and the stably transfected amylin/CRE-lue CHO cells were inoculated into the white 96-well plate at a density of about 20,000 cells/well for activity determination.

For orientation: EC50 means the concentration that produces a half-maximal response. In the case of `CC[C@H](C)[C@H](NC(=O)[C@@H]1CCCN1C(=O)CNC(=O)[C@H](CC(C)C)NC(=O)[C@H](CC(N)=O)NC(=O)[C@H](CC(N)=O)NC(=O)[C@H](CO)NC(=O)[C@H](CCCCNC(=O)COCCOCCNC(=O)COCCOCCNC(=O)CC[C@H](NC(=O)CCCCCCCCCCCCCCCCCCC(=O)O)C(=O)O)NC(=O)[C@H](Cc1c[nH]cn1)NC(=O)[C@H](CCCNC(=N)N)NC(=O)[C@H](CC(C)C)NC(=O)[C@H](Cc1ccccc1)NC(=O)[C@H](CC(=O)O)NC(=O)[C@H](C)NC(=O)[C@H](CC(C)C)NC(=O)[C@H](CCCNC(=N)N)NC(=O)[C@H](CCC(N)=O)NC(=O)[C@@H](NC(=O)[C@H](C)NC(=O)[C@@H]1CSSC[C@H](NC(=O)[C@@H](N)CCCNC(=N)N)C(=O)N[C@@H](CC(N)=O)C(=O)N[C@@H]([C@@H](C)O)C(=O)N[C@@H](C)C(=O)N[C@@H]([C@@H](C)O)C(=O)N1)[C@@H](C)O)C(=O)N[C@@H](CC(C)C)C(=O)N1CCC[C@H]1C(=O)N1CCC[C@H]1C(=O)N[C@H](C(=O)N[C@@H](CC(N)=O)C(=O)N[C@H](C(=O)NCC(=O)N[C@@H](CO)C(=O)N[C@@H](CC(N)=O)C(=O)N[C@H](C(=O)N1C[C@H](O)C[C@H]1C(N)=O)[C@@H](C)O)C(C)C)[C@@H](C)O` [PD099] (H-RCNTATCATQRLADFLRHK([AEEA-AEEA-γGlu-C20 diacid])SNNLGPILPPTNVGSNT[Hyp]-NH2; disulfide 2-7), the EC50 was found to be 33 pM. Then `CC[C@H](C)[C@H](NC(=O)[C@@H]1CCCN1C(=O)[C@H](CCCCN)NC(=O)[C@H](CC(C)C)NC(=O)[C@H](CC(N)=O)NC(=O)[C@H](CC(N)=O)NC(=O)[C@H](CO)NC(=O)[C@H](CO)NC(=O)[C@H](Cc1c[nH]cn1)NC(=O)[C@H](CCCNC(=N)N)NC(=O)[C@H](CC(C)C)NC(=O)[C@H](Cc1ccccc1)NC(=O)[C@H](CC(=O)O)NC(=O)[C@H](C)NC(=O)[C@H](CC(C)C)NC(=O)[C@H](CCCNC(=N)N)NC(=O)[C@H](CCC(N)=O)NC(=O)[C@@H](NC(=O)[C@H](C)NC(=O)[C@@H]1CSSC[C@H](NC(=O)[C@H](CCCCN)NC(=O)COCCOCCNC(=O)COCCOCCNC(=O)C2CCN(C(=O)CCCCCCCCCCCCCCCCCCC(=O)O)CC2)C(=O)N[C@@H](CC(N)=O)C(=O)N[C@@H]([C@@H](C)O)C(=O)N[C@@H](C)C(=O)N[C@@H]([C@@H](C)O)C(=O)N1)[C@@H](C)O)C(=O)N[C@@H](CC(C)C)C(=O)N1CCC[C@H]1C(=O)N1CCC[C@H]1C(=O)N[C@H](C(=O)N[C@@H](CC(N)=O)C(=O)N[C@H](C(=O)NCC(=O)N[C@@H](CO)C(=O)N[C@@H](CC(N)=O)C(=O)N[C@H](C(=O)N1C[C@H](O)C[C@H]1C(N)=O)[C@@H](C)O)C(C)C)[C@@H](C)O` [PD179] ({C20 diacid-Inp-AEEA-AEEA}-KCNTATCATQRLADFLRHSSNNLKPILPPTNVGSNT[Hyp]-NH2; disulfide 2-7), with 17 pM. In the case of `CC[C@H](C)[C@H](NC(=O)[C@@H]1CCCN1C(=O)[C@H](CCCCNC(=O)CC[C@H](NC(=O)CCCCCCCCCCCCCCCCCCC(=O)O)C(=O)O)NC(=O)[C@H](CC(C)C)NC(=O)[C@H](CC(N)=O)NC(=O)[C@H](CC(N)=O)NC(=O)[C@H](CO)NC(=O)[C@H](CO)NC(=O)[C@H](Cc1c[nH]cn1)NC(=O)[C@H](CCCNC(=N)N)NC(=O)[C@H](CC(C)C)NC(=O)[C@H](Cc1ccccc1)NC(=O)[C@H](CCC(=O)O)NC(=O)[C@H](C)NC(=O)[C@H](CC(C)C)NC(=O)[C@H](CCCNC(=N)N)NC(=O)[C@H](CCC(N)=O)NC(=O)[C@@H](NC(=O)[C@H](C)NC(=O)[C@@H]1CSSC[C@H](N)C(=O)N[C@@H](CC(N)=O)C(=O)N[C@@H]([C@@H](C)O)C(=O)N[C@@H](C)C(=O)N[C@@H]([C@@H](C)O)C(=O)N1)[C@@H](C)O)C(=O)N[C@@H](CC(C)C)C(=O)N1CCC[C@H]1C(=O)N1CCC[C@H]1C(=O)N[C@H](C(=O)N[C@@H](CC(N)=O)C(=O)N[C@H](C(=O)NCC(=O)N[C@@H](CO)C(=O)N[C@@H](CC(N)=O)C(=O)N[C@H](C(=O)N1C[C@H](O)C[C@H]1C(N)=O)[C@@H](C)O)C(C)C)[C@@H](C)O` [PD053] (H-CNTATCATQRLAEFLRHSSNNLK([γGlu-C20 diacid])PILPPTNVGSNT[Hyp]-NH2; disulfide 1-6), the concentration for a half-maximal effect (EC50) amounted to 75 pM. As to `CC[C@H](C)[C@H](NC(=O)[C@@H]1CCCN1C(=O)[C@H](CCCCNC(=O)COCCOCCNC(=O)COCCOCCNC(=O)CC[C@H](NC(=O)CCCCCCCCCCCCCCCCCCC(=O)O)C(=O)O)NC(=O)[C@H](CC(C)C)NC(=O)[C@H](CC(N)=O)NC(=O)[C@H](CC(N)=O)NC(=O)[C@H](CO)NC(=O)[C@H](CO)NC(=O)[C@H](Cc1c[nH]cn1)NC(=O)[C@H](CCCNC(=N)N)NC(=O)[C@H](CC(C)C)NC(=O)[C@H](Cc1ccccc1)NC(=O)[C@H](CC(=O)O)NC(=O)[C@H](C)NC(=O)[C@H](CC(C)C)NC(=O)[C@H](CCCNC(=N)N)NC(=O)[C@H](CCC(N)=O)NC(=O)[C@@H](NC(=O)[C@H](C)NC(=O)[C@@H]1CSSC[C@H](NC(=O)[C@@H](N)CCCNC(=N)N)C(=O)N[C@@H](CC(N)=O)C(=O)N[C@@H]([C@@H](C)O)C(=O)N[C@@H](C)C(=O)N[C@@H]([C@@H](C)O)C(=O)N1)[C@@H](C)O)C(=O)N[C@@H](CC(C)C)C(=O)N1CCC[C@H]1C(=O)N1CCC[C@H]1C(=O)N[C@H](C(=O)N[C@@H](CC(N)=O)C(=O)N[C@H](C(=O)NCC(=O)N[C@@H](CO)C(=O)N[C@@H](CC(N)=O)C(=O)N[C@H](C(=O)N1C[C@H](O)C[C@H]1C(N)=O)[C@@H](C)O)C(C)C)[C@@H](C)O` [PD081] (H-RCNTATCATQRLADFLRHSSNNLK([AEEA-AEEA-γGlu-C20 diacid])PILPPTNVGSNT[Hyp]-NH2; disulfide 2-7), the EC50 was found to be 31 pM.

For `CC[C@H](C)[C@H](NC(=O)[C@H](CCCCNC(=O)CC[C@H](NC(=O)CCCCCCCCCCCCCCCCC(=O)O)C(=O)O)NC(=O)CNC(=O)[C@H](CC(C)C)NC(=O)[C@H](CC(N)=O)NC(=O)[C@H](CC(N)=O)NC(=O)[C@H](CO)NC(=O)[C@H](CO)NC(=O)[C@H](Cc1c[nH]cn1)NC(=O)[C@H](CCCNC(=N)N)NC(=O)[C@H](CC(C)C)NC(=O)[C@H](Cc1ccccc1)NC(=O)[C@H](CC(=O)O)NC(=O)[C@H](C)NC(=O)[C@H](CC(C)C)NC(=O)[C@H](CCCNC(=N)N)NC(=O)[C@H](CCC(N)=O)NC(=O)[C@@H](NC(=O)[C@H](C)NC(=O)[C@@H]1CSSC[C@H](NC(=O)[C@@H](N)CCCNC(=N)N)C(=O)N[C@@H](CC(N)=O)C(=O)N[C@@H]([C@@H](C)O)C(=O)N[C@@H](C)C(=O)N[C@@H]([C@@H](C)O)C(=O)N1)[C@@H](C)O)C(=O)N[C@@H](CC(C)C)C(=O)N1CCC[C@H]1C(=O)N1CCC[C@H]1C(=O)N[C@H](C(=O)N[C@@H](CC(N)=O)C(=O)N[C@H](C(=O)NCC(=O)N[C@@H](CO)C(=O)N[C@@H](CC(N)=O)C(=O)N[C@H](C(=O)N1C[C@H](O)C[C@H]1C(N)=O)[C@@H](C)O)C(C)C)[C@@H](C)O` [PD104] (H-RCNTATCATQRLADFLRHSSNNLGK([γGlu-C18 diacid])ILPPTNVGSNT[Hyp]-NH2; disulfide 2-7), the EC50 is 11 pM.

In the case of `CC[C@H](C)[C@H](NC(=O)[C@@H]1CCCN1C(=O)CNC(=O)[C@H](CC(C)C)NC(=O)[C@H](CC(N)=O)NC(=O)[C@H](CCCCNC(=O)CC[C@H](NC(=O)CCCCCCCCCCCCCCCCCCC(=O)O)C(=O)O)NC(=O)[C@H](CO)NC(=O)[C@H](CO)NC(=O)[C@H](Cc1c[nH]cn1)NC(=O)[C@H](CCCNC(=N)N)NC(=O)[C@H](CC(C)C)NC(=O)[C@H](Cc1ccccc1)NC(=O)[C@H](CC(=O)O)NC(=O)[C@H](C)NC(=O)[C@H](CC(C)C)NC(=O)[C@H](CCCNC(=N)N)NC(=O)[C@H](CCC(N)=O)NC(=O)[C@@H](NC(=O)[C@H](C)NC(=O)[C@@H]1CSSC[C@H](NC(=O)[C@@H](N)CCCNC(=N)N)C(=O)N[C@@H](CC(N)=O)C(=O)N[C@@H]([C@@H](C)O)C(=O)N[C@@H](C)C(=O)N[C@@H]([C@@H](C)O)C(=O)N1)[C@@H](C)O)C(=O)N[C@@H](CC(C)C)C(=O)N1CCC[C@H]1C(=O)N1CCC[C@H]1C(=O)N[C@H](C(=O)N[C@@H](CC(N)=O)C(=O)N[C@H](C(=O)NCC(=O)N[C@@H](CO)C(=O)N[C@@H](CC(N)=O)C(=O)N[C@H](C(=O)N1C[C@H](O)C[C@H]1C(N)=O)[C@@H](C)O)C(C)C)[C@@H](C)O` [PD090] (H-RCNTATCATQRLADFLRHSSK([γGlu-C20 diacid])NLGPILPPTNVGSNT[Hyp]-NH2; disulfide 2-7), the EC50 stood at 31 pM.
